How the values were obtained:
[1] = Microtitre plate insoluble aggregate test: time for A350 to increase by 0.2 AU at 65° C.; type: physicochemical; conditions: cation chlorides 50-500 mM, albumin 10 mg/mL, pH 6.43, 65° C.
Method: The microtitre plate was gently rocked to mix the contents of each well, centrifuged to remove any air bubbles and placed in a Biotek Synergy Mx (Potton, UK) plate reader that had been pre-equilibrated and controlled at 65° C. The plate was then read at 350 nm every minute over a total incubation time of 8 hours. Gen5 software (Biotek software for the plate reader version 2.00.18) was used to calculate the time taken for the A350 nm absorbance to increase by 0.2 adsorption units above a base line. The base line was calculated from the mean of the first 5 data points.

[2] = test system: Human embryonic stem cells (cell lines SAl21 and SA181); experiment: Effect of octanoate on stem cell culture (attachment, growth, undifferentiated state over 5 passages; text summary for both cell lines); type: cell-based; conditions: 8 mM octanoate in 100 g/L albumin
Method: The effect of octanoate on stem cell culture was carried out by a contract research organization: Cellartis AB (Gothenburg, Sweden). […] The cell growth over the 5 passages was assessed by monitoring the cell doubling times during consecutive passages in cell production. The doubling times of cultures should be within a range of 28-40 hours, and can be seen as a trend indicator.

[Cl-].[Cl-].[Mg+2] [MgCl2]
albumin stability (time for A350 to increase by 0.2 AU) [1]: very good

CCCCCCCC(=O)O [octanoate]
toxicity to stem cells [2]: toxic to stem cells

From patent US10844349B2 (Albumedix Ltd., priority 2011, dated 2020)
